Earlier results in patent US20140348954A1, “PRODUCT COMPRISING GLUCOMANNAN AND CHITOSAN FOR THE TREATMENT OF GASTROESOPHAGEAL REFLUX DISEASE” (DICOFARM S.P.A., priority 2012, published 2014).

Biological target: transient receptor potential cation channel subfamily V member 1 (TrpV1) (Homo sapiens, UniProt Q8NER1)
Settings: inflamed human esophagus due to GERD

Chain of transient receptor potential cation channel subfamily V member 1 (TrpV1) (Q8NER1 whole entry): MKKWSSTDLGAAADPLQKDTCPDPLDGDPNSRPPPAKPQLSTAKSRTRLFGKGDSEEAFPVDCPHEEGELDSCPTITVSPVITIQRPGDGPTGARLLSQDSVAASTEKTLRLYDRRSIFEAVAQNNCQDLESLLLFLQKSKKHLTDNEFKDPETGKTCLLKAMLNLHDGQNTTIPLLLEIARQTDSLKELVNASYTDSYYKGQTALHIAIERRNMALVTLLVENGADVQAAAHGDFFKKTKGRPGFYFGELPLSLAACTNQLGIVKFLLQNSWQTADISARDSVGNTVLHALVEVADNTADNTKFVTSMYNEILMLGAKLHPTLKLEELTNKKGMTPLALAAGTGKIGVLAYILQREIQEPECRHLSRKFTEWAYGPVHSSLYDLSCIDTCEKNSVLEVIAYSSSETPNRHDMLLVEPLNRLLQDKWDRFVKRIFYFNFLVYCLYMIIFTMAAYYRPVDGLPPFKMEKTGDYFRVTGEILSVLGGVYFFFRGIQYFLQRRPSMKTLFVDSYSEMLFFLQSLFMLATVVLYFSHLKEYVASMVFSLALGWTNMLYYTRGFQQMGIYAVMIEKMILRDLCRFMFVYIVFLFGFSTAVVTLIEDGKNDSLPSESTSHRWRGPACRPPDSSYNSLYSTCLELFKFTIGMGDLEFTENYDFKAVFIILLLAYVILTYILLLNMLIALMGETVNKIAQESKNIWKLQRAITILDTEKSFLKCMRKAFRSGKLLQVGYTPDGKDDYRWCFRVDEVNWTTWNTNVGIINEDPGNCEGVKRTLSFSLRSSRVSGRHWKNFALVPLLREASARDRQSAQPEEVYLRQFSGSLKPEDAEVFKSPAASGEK

action on TrpV1: typical activator
Structure (SMILES): COc1cc(/C=C/C(=O)CC(=O)/C=C/c2ccc(O)c(OC)c2)ccc1O [curcumin]
